How the values were obtained:
Test in all cases: KINOMEscan
Assay type in all cases: binding
Conditions in all cases: read-out: Remaining enzyme activity
SNARK = biological target: T1, SNARK (Homo sapiens, UniProt Q9H093)
T1 construct: purchased Ambit (DiscoverX) KINOMEscan; Cerep
Summary of the method: (§1)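 Immobilized ligand beads, biotin-blocked and washed in SeaBlock buffer with BSA, Tween 20 and DTT, are incubated with DNA-tagged kinase and 10 μM SC81458. Compound occupying the active site lowers bead-bound kinase, which is quantified by qPCR of the tag.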

EGFR(S752-I759del) = biological target: T2, EGFR(S752-I759del) (Homo sapiens, UniProt P00533, DEL752-759)
T2 construct: purchased Ambit (DiscoverX) KINOMEscan; Cerep
Summary of the method: as §1

HIPK1 = biological target: T3, HIPK1 (Homo sapiens, UniProt Q86Z02)
T3 construct: purchased Ambit (DiscoverX) KINOMEscan; Cerep
Summary of the method: as §1

CAMKK1 = biological target: T4, CAMKK1 (Homo sapiens, UniProt Q8N5S9)
T4 construct: purchased Ambit (DiscoverX) KINOMEscan; Cerep
Summary of the method: as §1

NEK5 = biological target: T5, NEK5 (Homo sapiens, UniProt Q6P3R8)
T5 construct: purchased Ambit (DiscoverX) KINOMEscan; Cerep
Summary of the method: as §1

CLK2 = biological target: T6, CLK2 (Homo sapiens, UniProt P49760)
T6 construct: purchased Ambit (DiscoverX) KINOMEscan; Cerep
Summary of the method: as §1

[1] = biological target: T7, RPS6KA5(Kin.Dom.2-C-term) (Homo sapiens, UniProt O75582)
T7 construct: RPS6KA5(Kin.Dom.2-C-term); purchased Ambit (DiscoverX) KINOMEscan; Cerep
Summary of the method: as §1

PIK3CA(H1047L) = biological target: T8, PIK3CA(H1047L) (Homo sapiens, UniProt P42336, H1047L)
T8 construct: purchased Ambit (DiscoverX) KINOMEscan; Cerep
Summary of the method: as §1

JNK1 = biological target: T9, JNK1 (Homo sapiens, UniProt P45983)
T9 construct: purchased Ambit (DiscoverX) KINOMEscan; Cerep
Summary of the method: as §1

CSNK1g2 = biological target: T10, CSNK1g2 (Homo sapiens, UniProt P78368)
T10 construct: purchased Ambit (DiscoverX) KINOMEscan; Cerep
Summary of the method: as §1

PDGFRa = biological target: T11, PDGFRa (Homo sapiens, UniProt P16234)
T11 construct: purchased Ambit (DiscoverX) KINOMEscan; Cerep
Summary of the method: as §1

TEC = biological target: T12, TEC (Homo sapiens, UniProt P42680)
T12 construct: purchased Ambit (DiscoverX) KINOMEscan; Cerep
Summary of the method: as §1

IRAK3 = biological target: T13, IRAK3 (Homo sapiens, UniProt Q9Y616)
T13 construct: purchased Ambit (DiscoverX) KINOMEscan; Cerep
Summary of the method: as §1

CAMK1 = biological target: T14, CAMK1 (Homo sapiens, UniProt Q14012)
T14 construct: purchased Ambit (DiscoverX) KINOMEscan; Cerep
Summary of the method: as §1

PIK3Cg = biological target: T15, PIK3Cg (Homo sapiens, UniProt P48736)
T15 construct: purchased Ambit (DiscoverX) KINOMEscan; Cerep
Summary of the method: as §1

EPHB1 = biological target: T16, EPHB1 (Homo sapiens, UniProt P54762)
T16 construct: purchased Ambit (DiscoverX) KINOMEscan; Cerep
Summary of the method: as §1

ASK1 = biological target: T17, ASK1 (Homo sapiens, UniProt Q99683)
T17 construct: purchased Ambit (DiscoverX) KINOMEscan; Cerep
Summary of the method: as §1

INSRR = biological target: T18, INSRR (Homo sapiens, UniProt P14616)
T18 construct: purchased Ambit (DiscoverX) KINOMEscan; Cerep
Summary of the method: as §1

PRP4 = biological target: T19, PRP4 (Homo sapiens, UniProt Q13523)
T19 construct: purchased Ambit (DiscoverX) KINOMEscan; Cerep
Summary of the method: as §1

TESK1 = biological target: T20, TESK1 (Homo sapiens, UniProt Q15569)
T20 construct: purchased Ambit (DiscoverX) KINOMEscan; Cerep
Summary of the method: as §1

IKK-alpha = biological target: T21, IKK-alpha (Homo sapiens, UniProt O15111)
T21 construct: purchased Ambit (DiscoverX) KINOMEscan; Cerep
Summary of the method: as §1

MAP3K1 = biological target: T22, MAP3K1 (Homo sapiens, UniProt Q13233)
T22 construct: purchased Ambit (DiscoverX) KINOMEscan; Cerep
Summary of the method: as §1

ROCK1 = biological target: T23, ROCK1 (Homo sapiens, UniProt Q13464)
T23 construct: purchased Ambit (DiscoverX) KINOMEscan; Cerep
Summary of the method: as §1

[2] = biological target: T24, RPS6KA2(Kin.Dom.2-C-term) (Homo sapiens, UniProt Q15349)
T24 construct: RPS6KA2(Kin.Dom.2-C-term); purchased Ambit (DiscoverX) KINOMEscan; Cerep
Summary of the method: as §1

CSNK1g1 = biological target: T25, CSNK1g1 (Homo sapiens, UniProt Q9HCP0)
T25 construct: purchased Ambit (DiscoverX) KINOMEscan; Cerep
Summary of the method: as §1

[3] = biological target: T26, RPS6KA6(Kin.Dom.2-C-term) (Homo sapiens, UniProt Q9UK32)
T26 construct: RPS6KA6(Kin.Dom.2-C-term); purchased Ambit (DiscoverX) KINOMEscan; Cerep
Summary of the method: as §1

LOK = biological target: T27, LOK (Homo sapiens, UniProt O94804)
T27 construct: purchased Ambit (DiscoverX) KINOMEscan; Cerep
Summary of the method: as §1

CTK = biological target: T28, CTK (Homo sapiens, UniProt P42679)
T28 construct: purchased Ambit (DiscoverX) KINOMEscan; Cerep
Summary of the method: as §1

DAPK1 = biological target: T29, DAPK1 (Homo sapiens, UniProt P53355)
T29 construct: purchased Ambit (DiscoverX) KINOMEscan; Cerep
Summary of the method: as §1

FAK = biological target: T30, FAK (Homo sapiens, UniProt Q05397)
T30 construct: purchased Ambit (DiscoverX) KINOMEscan; Cerep
Summary of the method: as §1

PIK3C2g = biological target: T31, PIK3C2g (Homo sapiens, UniProt O75747)
T31 construct: purchased Ambit (DiscoverX) KINOMEscan; Cerep
Summary of the method: as §1

FLT3 = biological target: T32, FLT3 (Homo sapiens, UniProt P36888)
T32 construct: purchased Ambit (DiscoverX) KINOMEscan; Cerep
Summary of the method: as §1

T12 sequence (P42680 whole entry): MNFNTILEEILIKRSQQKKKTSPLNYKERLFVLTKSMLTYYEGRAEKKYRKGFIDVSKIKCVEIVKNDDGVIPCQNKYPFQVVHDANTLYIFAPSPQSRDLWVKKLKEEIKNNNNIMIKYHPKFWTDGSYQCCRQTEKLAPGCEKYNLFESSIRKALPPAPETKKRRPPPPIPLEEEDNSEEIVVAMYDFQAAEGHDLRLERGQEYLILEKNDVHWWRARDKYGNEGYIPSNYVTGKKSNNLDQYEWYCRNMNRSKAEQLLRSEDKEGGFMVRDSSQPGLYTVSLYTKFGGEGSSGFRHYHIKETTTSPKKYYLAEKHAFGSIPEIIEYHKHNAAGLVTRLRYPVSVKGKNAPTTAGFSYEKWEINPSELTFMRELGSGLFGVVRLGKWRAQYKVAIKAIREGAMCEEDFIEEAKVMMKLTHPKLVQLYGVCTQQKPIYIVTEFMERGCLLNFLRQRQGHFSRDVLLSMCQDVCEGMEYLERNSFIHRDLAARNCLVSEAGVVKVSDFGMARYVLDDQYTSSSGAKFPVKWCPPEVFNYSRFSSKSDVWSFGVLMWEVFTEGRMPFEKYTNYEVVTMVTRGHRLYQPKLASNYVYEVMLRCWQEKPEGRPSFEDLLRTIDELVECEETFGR
T19 sequence (Q13523 whole entry): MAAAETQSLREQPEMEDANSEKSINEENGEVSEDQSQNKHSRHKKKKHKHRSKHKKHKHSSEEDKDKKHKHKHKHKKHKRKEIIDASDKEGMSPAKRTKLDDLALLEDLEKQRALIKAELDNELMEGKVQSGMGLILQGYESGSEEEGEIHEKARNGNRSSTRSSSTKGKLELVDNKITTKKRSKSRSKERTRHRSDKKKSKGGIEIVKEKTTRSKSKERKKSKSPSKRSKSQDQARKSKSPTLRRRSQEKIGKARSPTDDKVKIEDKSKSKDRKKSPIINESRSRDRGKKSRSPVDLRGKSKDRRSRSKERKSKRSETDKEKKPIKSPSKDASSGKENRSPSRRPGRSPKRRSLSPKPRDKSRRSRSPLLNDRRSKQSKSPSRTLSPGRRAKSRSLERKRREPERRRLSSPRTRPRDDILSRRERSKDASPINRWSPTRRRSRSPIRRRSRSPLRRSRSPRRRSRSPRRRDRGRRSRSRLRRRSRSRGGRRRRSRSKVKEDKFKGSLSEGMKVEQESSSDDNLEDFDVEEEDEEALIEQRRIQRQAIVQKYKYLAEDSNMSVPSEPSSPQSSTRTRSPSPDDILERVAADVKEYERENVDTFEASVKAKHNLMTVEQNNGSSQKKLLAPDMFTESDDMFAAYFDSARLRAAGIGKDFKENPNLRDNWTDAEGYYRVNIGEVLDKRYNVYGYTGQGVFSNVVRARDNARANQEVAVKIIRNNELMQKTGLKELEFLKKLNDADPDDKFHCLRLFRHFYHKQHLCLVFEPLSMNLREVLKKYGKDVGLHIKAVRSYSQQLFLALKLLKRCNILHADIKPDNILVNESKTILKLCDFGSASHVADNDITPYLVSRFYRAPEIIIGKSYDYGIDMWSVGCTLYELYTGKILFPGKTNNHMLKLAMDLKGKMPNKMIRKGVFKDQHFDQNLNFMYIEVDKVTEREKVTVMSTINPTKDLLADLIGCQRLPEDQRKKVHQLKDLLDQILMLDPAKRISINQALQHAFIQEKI
T31 sequence (O75747 whole entry): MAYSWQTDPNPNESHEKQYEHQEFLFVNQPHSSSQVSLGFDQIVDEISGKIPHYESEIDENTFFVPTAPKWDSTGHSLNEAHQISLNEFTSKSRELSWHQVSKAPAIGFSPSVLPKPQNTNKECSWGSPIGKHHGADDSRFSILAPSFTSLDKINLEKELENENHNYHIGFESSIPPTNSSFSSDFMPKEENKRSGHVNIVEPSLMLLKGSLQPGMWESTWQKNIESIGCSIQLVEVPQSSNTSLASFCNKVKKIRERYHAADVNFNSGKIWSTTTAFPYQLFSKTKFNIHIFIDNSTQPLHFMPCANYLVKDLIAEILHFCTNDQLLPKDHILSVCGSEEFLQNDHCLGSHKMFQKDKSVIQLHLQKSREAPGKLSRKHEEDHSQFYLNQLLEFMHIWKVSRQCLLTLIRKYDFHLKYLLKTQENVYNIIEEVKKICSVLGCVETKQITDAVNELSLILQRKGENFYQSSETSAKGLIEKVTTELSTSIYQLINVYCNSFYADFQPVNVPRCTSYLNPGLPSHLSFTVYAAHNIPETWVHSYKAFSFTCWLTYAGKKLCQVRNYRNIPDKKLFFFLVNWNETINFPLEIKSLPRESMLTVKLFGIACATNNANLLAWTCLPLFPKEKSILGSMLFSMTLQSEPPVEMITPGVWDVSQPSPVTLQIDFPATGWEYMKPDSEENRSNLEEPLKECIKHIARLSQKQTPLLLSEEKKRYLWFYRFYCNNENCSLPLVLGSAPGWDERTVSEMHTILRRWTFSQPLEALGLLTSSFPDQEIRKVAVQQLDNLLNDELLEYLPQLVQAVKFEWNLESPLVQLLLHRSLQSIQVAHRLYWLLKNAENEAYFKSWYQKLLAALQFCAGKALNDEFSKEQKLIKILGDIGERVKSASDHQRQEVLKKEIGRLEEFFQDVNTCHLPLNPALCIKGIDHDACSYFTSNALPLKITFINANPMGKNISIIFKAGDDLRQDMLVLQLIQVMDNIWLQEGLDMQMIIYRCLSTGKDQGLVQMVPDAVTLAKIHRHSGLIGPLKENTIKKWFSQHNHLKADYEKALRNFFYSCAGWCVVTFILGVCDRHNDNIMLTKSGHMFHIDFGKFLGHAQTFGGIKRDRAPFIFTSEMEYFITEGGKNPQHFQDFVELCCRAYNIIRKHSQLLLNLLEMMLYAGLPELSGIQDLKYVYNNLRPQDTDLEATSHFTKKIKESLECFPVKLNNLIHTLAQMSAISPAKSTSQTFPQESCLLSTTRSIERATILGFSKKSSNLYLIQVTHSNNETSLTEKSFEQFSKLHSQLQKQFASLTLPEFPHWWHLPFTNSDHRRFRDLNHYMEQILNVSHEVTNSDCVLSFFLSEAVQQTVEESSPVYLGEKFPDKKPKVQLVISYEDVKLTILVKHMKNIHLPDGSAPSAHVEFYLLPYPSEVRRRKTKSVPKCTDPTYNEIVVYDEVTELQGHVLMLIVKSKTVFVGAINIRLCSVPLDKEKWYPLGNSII
T32 sequence (P36888 27-993): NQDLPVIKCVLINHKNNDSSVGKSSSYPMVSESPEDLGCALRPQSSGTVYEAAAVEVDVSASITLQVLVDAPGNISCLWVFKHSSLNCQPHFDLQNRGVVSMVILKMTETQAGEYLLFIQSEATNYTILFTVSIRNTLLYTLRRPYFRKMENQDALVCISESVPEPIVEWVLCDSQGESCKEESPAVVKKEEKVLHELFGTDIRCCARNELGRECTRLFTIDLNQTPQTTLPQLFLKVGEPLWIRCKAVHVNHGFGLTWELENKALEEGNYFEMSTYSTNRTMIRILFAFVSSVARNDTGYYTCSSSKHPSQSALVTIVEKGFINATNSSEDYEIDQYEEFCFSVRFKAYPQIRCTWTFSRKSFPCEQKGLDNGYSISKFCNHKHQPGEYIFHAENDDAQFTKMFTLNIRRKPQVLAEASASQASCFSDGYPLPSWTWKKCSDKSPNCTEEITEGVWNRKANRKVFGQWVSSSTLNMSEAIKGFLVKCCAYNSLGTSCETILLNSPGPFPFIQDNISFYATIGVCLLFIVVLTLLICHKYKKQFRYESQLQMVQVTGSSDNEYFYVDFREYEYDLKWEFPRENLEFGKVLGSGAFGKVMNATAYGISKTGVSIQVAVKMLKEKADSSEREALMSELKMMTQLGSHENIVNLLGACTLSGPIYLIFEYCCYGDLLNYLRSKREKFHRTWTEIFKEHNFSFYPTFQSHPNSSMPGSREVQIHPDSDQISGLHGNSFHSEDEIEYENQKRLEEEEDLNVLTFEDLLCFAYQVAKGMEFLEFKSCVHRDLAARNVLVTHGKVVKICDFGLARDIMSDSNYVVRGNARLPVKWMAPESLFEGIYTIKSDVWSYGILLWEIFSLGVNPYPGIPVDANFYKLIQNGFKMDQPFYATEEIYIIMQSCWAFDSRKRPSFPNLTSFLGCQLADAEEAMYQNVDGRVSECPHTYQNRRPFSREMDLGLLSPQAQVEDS
T10 sequence (P78368 whole entry): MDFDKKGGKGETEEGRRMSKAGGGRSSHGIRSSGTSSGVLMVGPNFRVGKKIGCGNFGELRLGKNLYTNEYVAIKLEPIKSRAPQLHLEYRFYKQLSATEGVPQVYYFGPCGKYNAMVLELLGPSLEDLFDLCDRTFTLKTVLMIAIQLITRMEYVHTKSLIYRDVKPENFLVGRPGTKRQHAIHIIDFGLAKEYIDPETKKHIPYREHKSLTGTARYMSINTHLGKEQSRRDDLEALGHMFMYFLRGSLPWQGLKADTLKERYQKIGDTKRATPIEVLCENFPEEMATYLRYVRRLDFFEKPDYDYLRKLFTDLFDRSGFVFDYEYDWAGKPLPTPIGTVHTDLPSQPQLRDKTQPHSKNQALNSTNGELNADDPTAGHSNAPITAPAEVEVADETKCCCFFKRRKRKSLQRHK
T7 sequence (O75582 426-687 limits assumed): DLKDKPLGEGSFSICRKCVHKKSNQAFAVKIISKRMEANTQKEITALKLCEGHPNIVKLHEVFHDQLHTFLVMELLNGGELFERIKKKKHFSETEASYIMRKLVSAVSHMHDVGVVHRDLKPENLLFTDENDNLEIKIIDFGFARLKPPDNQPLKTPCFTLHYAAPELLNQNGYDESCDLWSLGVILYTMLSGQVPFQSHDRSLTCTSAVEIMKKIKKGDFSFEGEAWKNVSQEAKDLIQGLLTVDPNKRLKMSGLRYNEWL
T26 sequence (Q9UK32 426-683 limits assumed): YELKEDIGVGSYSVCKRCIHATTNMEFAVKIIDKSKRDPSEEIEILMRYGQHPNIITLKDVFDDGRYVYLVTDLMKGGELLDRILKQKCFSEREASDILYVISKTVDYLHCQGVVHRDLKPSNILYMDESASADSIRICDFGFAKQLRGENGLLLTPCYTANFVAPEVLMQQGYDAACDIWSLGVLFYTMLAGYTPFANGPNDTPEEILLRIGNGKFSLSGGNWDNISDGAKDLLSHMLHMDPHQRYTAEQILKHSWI

CCCCN1CCN(C(=N)c2cccc(NC(=O)Nc3ccc(S(=O)(=O)NCc4ccc(S(N)(=O)=O)cc4)cc3)c2)CC1 [SC81458, 4-(3-(3-((4-butylpiperazin-1-yl)(imino)methyl)phenyl)ureido)-N-(4-sulfamoylbenzyl) benzenesulfonamide]
remaining binding at 10 µM (SNARK): 100% | remaining binding at 10 µM (EGFR(S752-I759del)): 99% | remaining binding at 10 µM (HIPK1): 100% | remaining binding at 10 µM (CAMKK1): 93% | remaining binding at 10 µM (NEK5): 100% | remaining binding at 10 µM (CLK2): 100% | remaining binding at 10 µM [1]: 100% | remaining binding at 10 µM (PIK3CA(H1047L)): 100% | remaining binding at 10 µM (JNK1): 98% | remaining binding at 10 µM (CSNK1g2): 100% | remaining binding at 10 µM (PDGFRa): 87% | remaining binding at 10 µM (TEC): 90% | remaining binding at 10 µM (IRAK3): 69% | remaining binding at 10 µM (CAMK1): 82% | remaining binding at 10 µM (PIK3Cg): 92% | remaining binding at 10 µM (EPHB1): 84% | remaining binding at 10 µM (ASK1): 100% | remaining binding at 10 µM (INSRR): 95% | remaining binding at 10 µM (PRP4): 100% | remaining binding at 10 µM (TESK1): 100% | remaining binding at 10 µM (IKK-alpha): 100% | remaining binding at 10 µM (MAP3K1): 100% | remaining binding at 10 µM (ROCK1): 100% | remaining binding at 10 µM [2]: 100% | remaining binding at 10 µM (CSNK1g1): 100% | remaining binding at 10 µM [3]: 100% | remaining binding at 10 µM (LOK): 100% | remaining binding at 10 µM (CTK): 100% | remaining binding at 10 µM (DAPK1): 100% | remaining binding at 10 µM (FAK): 100% | remaining binding at 10 µM (PIK3C2g): 100% | remaining binding at 10 µM (FLT3): 100%

Source: paper PMC5290327, “SC83288 is a clinical development candidate for the treatment of severe malaria” (Nature Communications, 2017)
